Source: PMC3313490 (Current Cancer Drug Targets, 2011)
Read-outs that look alike come from different tables or passages of the source.

Assays:
porcine liver PMPMEase [1] = target: T1, porcine liver PMPMEase (Sus scrofa, UniProt Q29550); conditions: for Kobs/[I]: PMPMEase 82.5 μg, pre-incubation 0-30 min, 100-fold dilution, RD-PNB substrate
T1 sequence (Q29550 19-566): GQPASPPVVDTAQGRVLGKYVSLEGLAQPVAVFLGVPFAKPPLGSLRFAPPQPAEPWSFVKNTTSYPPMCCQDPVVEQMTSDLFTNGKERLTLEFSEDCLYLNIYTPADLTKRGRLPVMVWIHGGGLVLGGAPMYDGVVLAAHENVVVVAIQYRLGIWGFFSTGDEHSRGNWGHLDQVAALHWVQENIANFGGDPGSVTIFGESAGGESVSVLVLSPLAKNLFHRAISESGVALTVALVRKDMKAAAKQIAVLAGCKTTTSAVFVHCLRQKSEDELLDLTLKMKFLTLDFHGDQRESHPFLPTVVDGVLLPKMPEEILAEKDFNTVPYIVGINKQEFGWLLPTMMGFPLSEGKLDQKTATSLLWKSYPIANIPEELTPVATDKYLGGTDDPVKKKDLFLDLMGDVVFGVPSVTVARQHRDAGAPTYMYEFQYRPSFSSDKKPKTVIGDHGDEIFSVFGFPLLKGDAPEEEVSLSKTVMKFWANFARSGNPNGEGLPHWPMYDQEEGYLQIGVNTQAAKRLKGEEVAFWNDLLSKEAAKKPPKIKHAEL

[2] = test system: human neuroblastoma SH-SY5Y cells; experiment: Cell degeneration by microscopy images of treated cells; type: cell-based; conditions: 24 h exposure, up to 200 μM
[3] = test system: human neuroblastoma SH-SY5Y cells; type: cell-based; conditions: for EC50: read-out: EC50 cell viability
porcine liver PMPMEase [4] = target: T1, porcine liver PMPMEase; conditions: for IC50: PMPMEase 1 μg, 15 min pre-incubation at 37°C, RD-PNB substrate

## 2-trans-Geranylthioethanesulfonyl fluoride [Compound L-23]
Porcine liver PMPMEase [1]
  Kobs/[I]: 4100 M⁻¹ s⁻¹
  Kobs/[I] fold higher relative to PMSF: over 680 fold
[2]
  Cell degeneration observed: extensive degeneration
[3]
  EC50: 144 µM
Porcine liver PMPMEase [4]
  IC50 fold lower relative to PMSF: 56 fold

## CC(C)=CCC/C(C)=C/CC/C(C)=C/CSCCS(=O)(=O)F [Compound L-28, 2-trans, trans-Farnesylthioethanesulfonyl fluoride]
Porcine liver PMPMEase [1]
  Kobs/[I]: 2000 M⁻¹ s⁻¹
  Kobs/[I] fold higher relative to PMSF: > 330 fold
[2]
  Cell degeneration observed: extensive degeneration
[3]; 24 h exposure, serum-free DMEM/F12
  EC50: 66.5 µM
[3]; 48 h exposure, serum-free DMEM/F12
  EC50: 24.3 µM
[3]; 72 h exposure, serum-free DMEM/F12
  EC50: 13.6 µM
Porcine liver PMPMEase [4]
  IC50: 0.048 µM
  IC50 fold lower relative to PMSF: 37 fold

## O=S(=O)(F)CCSc1ccccc1 [Compound L-50, Phenylthioethanesulfonyl fluoride]
Porcine liver PMPMEase [1]
  Kobs/[I]: 180 M⁻¹ s⁻¹
Porcine liver PMPMEase [4]
  IC50: 0.066 µM

## O=S(=O)(F)CCSCc1ccccc1 [Compound L-51, Benzylthioethanesulfonyl fluoride]
Porcine liver PMPMEase [1]
  Kobs/[I]: 350 M⁻¹ s⁻¹
Porcine liver PMPMEase [1]; relative to L-28
  Kobs/[I] fold lower than that for L-28: over 5 fold
Porcine liver PMPMEase [4]
  IC50: 0.047 µM

## CCCCCCCCCCSCCS(=O)(=O)F [Compound L-52, Decanylthioethanesulfonyl fluoride]
Porcine liver PMPMEase [1]
  Kobs/[I]: 1800 M⁻¹ s⁻¹
Porcine liver PMPMEase [4]
  IC50: 0.13 µM

## O=S(=O)(F)Cc1ccccc1 [PMSF, phenylmethylsulfonyl fluoride, reference compound]
[2]
  Cell degeneration observed: did not show degeneration even at 200 μM
[3]; 24 h exposure
  Effect on viability of cultured cells: no significant effect
